In patent US6620828B2, “Thiazole compounds and pharmaceutical compositions for inhibiting protein kinases and methods for their use” (Agouron Pharmaceuticals, Inc., priority 1999, dated 2003):
“And” between values parts separate entries of the source, which are not always exact repeats. Identical values can stand only once. Each block holds one molecule with its values, some of them ahead of it.

Tests used:
VEGF = assay: In vivo assay of retinal vascular development in neonatal rats; parameters: species or system rat; settings: development model; intravitreal, 2 μl of 5 mg/ml initial drug concentration
Source text: In Vivo Assay of Retinal Vascular Development in Neonatal Rats
The development of the retinal vascular in rats occurs from postnatal day 1 to postnatal day 14 (P1-P14). This process is dependent on the activity of VEGF (J. Stone, et al, J. Neurosci., 15, 4738 (1995)). […] To assess the ability of specific compounds to inhibit the activity of VEGF in vivo, compounds were formulated in an appropriate vehicle, usually 50% polyethylene glycol, average molecular weight 400 daltons, and 50% solution of 300 mM sucrose in deionized water. Typically, two microliters (2 μl) of the drug solution was injected into the midvitreous of the eye of rat pups on postnatal day 8 or 9. Six days after the intravitreal injection, the animals were sacrificed and the retinas dissected free from the remaining ocular tissue. […] The individual retinas are then flat-mount onto glass slides and examined to determine the extent of vascularization. […] The amount of vessel regression was used to assess the relative potency of the compounds after in vivo administration. Vessel regression is graded on subjective scale of one to three pluses, with one plus being detectable regression judged to be approximately 25 percent or less, two pluses being judged to be approximately 25-75% regression and three pluses give to retinas with near total regression (approximately 75% or greater).

[1] = molecular target: T1, unphosphorylated VEGF-R2Δ50 (FLVK) (Homo sapiens, UniProt P35968, DEL940-989/E990V); assay: VEGF-R2 coupled spectrophotometric assay, unphosphorylated enzyme (FLVK); type: biochemical; settings: Table 3; some entries 'Slow binder'
T1 construct: VEGF-R2Δ50 contains residues 806-939 and 990-1171; made in house; host or cells: baculovirus/insect cells
Summary of the method: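 Unphosphorylated VEGF-R2Δ50 (5 to 40 nM) with 20 mM poly(E4Y1), 3 mM ATP, 60 mM MgCl2, 2 mM MnCl2 in 200 mM Hepes pH 7.5. ADP production coupled via PK/LDH to NADH oxidation, read at 340 nm. Ki from activity at varying compound concentrations.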

[2] = molecular target: T2, phosphorylated VEGF-R2Δ50 (FLVK-P) (Homo sapiens, UniProt P35968, DEL940-989/E990V); assay: VEGF-R2 coupled spectrophotometric (FLVK-P) assay; type: biochemical
T2 construct: VEGF-R2Δ50 contains residues 806-939 and 990-1171; made in house; host or cells: baculovirus/insect cells
Summary of the method: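 Baculovirus-expressed human VEGF-R2Δ50 (residues 806-939/990-1171, E990V) was autophosphorylated with 3 mM ATP, 40 mM MgCl2 for 2 h at 4° C. ADP formation was coupled via PK/LDH to NADH oxidation, read at 340 nm, with 5.1 mM poly(E4Y1), 1 mM ATP, 25 mM MgCl2, Hepes pH 7.5. Ki came from activity across compound concentrations.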

FAKcd409 = molecular target: T3, FAKcd409 (Homo sapiens, UniProt Q05397, P410T); assay: FAK HTS assay; type: biochemical; settings: 10 uM compound, HTS Delphia assay; 10 µM
T3 construct: comprises residues methionine 409 to glutamate 689; made in house; host or cells: baculovirus vector expression system

LCK tyrosine kinase [3] = molecular target: T4, LCK tyrosine kinase (Homo sapiens, UniProt P06239, C224D/P223M); assay: LCK spectrophotometric assay; type: biochemical
T4 construct: starting from amino acid residue 223 to the end of the protein at residue 509; made in house; host or cells: insect cells
Experimental: LCK Construct for Assay: The LCK tyrosine kinase was expressed in insect cells as an N-terminal deletion starting from amino acid residue 223 to the end of the protein at residue 509, with the following two amino acid substitutions at the N-terminus: […] and C224D.
The spectrophotometric assay was carried out as described above for VEGF-R2, except for the following changes in concentration: LCK=60 nM, MgCl2=0 mM, poly(E4Y1)=20 mM.

FGF-R1 = molecular target: T5, FGF-R1 (Homo sapiens, UniProt P11362, C488A/C584S/L457V); assay: FGF-R spectrophotometric assay; type: biochemical; settings: for inhibition at 1 µM: Table 3, % inh @ 1 uM, read-out: FGF-P Ki (nM) (% inh @ 1 uM)
T5 construct: starting from the endogenous methionine residue 456 to glutamate 766; made in house; host or cells: baculovirus vector expression system
Summary of the method: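 Kinase domain (Met456–Glu766, baculovirus-expressed) used at 50 nM in a spectrophotometric assay run as for VEGF-R2. Substrates were 2 mM ATP and 15 mM poly(E4Y1).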

[4] = tested on: lung cancer cells (line MV522); assay: Cancer cell proliferation (MV522) assay; type: cell-based; settings: MV522, Table 3
LCK tyrosine kinase [5] = molecular target: T4, LCK tyrosine kinase; assay: LCK spectrophotometric assay; type: biochemical; settings: Table 3, read-out: LCK (% inh @ 1 uM)
[6] = tested on: human umbilical vein endothelial cells (HUVEC); assay: HUVEC proliferation assay; type: cell-based; settings: Homo sapiens, HUVEC, Table 3
Summary of the method: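 Exponentially growing HUVEC were serum-starved 24 h (F12K + 1% FBS), pre-treated 1 h with compound (0.1% DMSO final), then stimulated with 6 ng/ml VEGF. Proliferation was read 72 h later by MTT reduction (A595). IC50 came from seven 0.5-log concentrations in triplicate; screens gave % inhibition relative to VEGF-only and starved wells.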

[7] = tested on: VEGF dependent retinal neovascularization; assay: In vivo assay in neonatal rat model of retinopathy of prematurity; settings: intravitreal injection
Experimental: In Vivo Assay of Retinal Vascular Development in Neonatal Rat Model of Retinopathy of Prematurity
A second model of VEGF dependent retinal neovascularization was employed to evaluate the activities of this series of compounds. In this model (Penn et. al, Invest. Ophthalmol. Vis. Sci., 36, 2063, (1995)), rats pups (n=16) with their mother are placed in a computer controlled chamber that regulates the concentration of oxygen. The animals are exposed for 24 hours to a concentration of 50% oxygen followed by 24 hours at a concentration of 10% oxygen. This alternating cycle of hyperoxia followed by hypoxia is repeated 7 times after which the animals are removed to room air (P14). Compounds are administered via intravitreal injection upon removal to room air and the animals are sacrificed 6 days later (P20). The isolated retinas are then isolated, stained mounted and analyzed as detail above in the development model. The effectiveness was also graded as is described for the development model.

T4 sequence (P06239 223-509 P223M/C224D): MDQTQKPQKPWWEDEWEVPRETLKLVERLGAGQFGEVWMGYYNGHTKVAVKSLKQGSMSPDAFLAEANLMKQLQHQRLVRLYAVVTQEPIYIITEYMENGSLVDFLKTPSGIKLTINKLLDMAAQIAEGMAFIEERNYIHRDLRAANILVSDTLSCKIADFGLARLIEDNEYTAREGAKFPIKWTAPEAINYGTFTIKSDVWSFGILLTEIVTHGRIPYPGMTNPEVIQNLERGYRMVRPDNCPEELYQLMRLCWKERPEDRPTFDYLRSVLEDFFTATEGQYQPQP
T3 sequence (Q05397 409-689 P410T): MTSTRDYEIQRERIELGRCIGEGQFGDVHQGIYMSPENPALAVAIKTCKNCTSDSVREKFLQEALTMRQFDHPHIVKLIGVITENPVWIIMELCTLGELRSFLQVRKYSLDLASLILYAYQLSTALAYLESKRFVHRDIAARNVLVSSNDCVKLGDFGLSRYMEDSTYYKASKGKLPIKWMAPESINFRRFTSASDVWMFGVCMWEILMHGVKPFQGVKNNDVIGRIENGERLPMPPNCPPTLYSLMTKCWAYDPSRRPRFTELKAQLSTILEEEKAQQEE
T5 sequence (P11362 456-766 L457V/C488A/C584S): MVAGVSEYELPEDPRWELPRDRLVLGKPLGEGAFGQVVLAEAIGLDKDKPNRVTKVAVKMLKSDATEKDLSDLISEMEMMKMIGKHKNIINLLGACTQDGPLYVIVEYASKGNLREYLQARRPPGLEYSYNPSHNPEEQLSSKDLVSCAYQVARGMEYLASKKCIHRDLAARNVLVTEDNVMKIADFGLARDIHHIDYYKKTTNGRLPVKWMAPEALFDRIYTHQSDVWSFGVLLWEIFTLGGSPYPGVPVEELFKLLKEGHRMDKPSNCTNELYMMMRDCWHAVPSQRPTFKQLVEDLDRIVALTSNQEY
T1 sequence (P35968 with tags, fused parts or gaps DEL940-989/E990V limits assumed): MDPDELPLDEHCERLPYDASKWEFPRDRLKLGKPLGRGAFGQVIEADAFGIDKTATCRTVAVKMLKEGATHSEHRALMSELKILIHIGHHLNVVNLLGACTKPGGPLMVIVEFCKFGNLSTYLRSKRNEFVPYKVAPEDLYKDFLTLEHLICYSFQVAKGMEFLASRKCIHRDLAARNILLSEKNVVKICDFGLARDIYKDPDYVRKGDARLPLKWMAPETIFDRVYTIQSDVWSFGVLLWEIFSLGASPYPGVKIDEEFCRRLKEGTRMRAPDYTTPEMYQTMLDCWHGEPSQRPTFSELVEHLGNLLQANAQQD
T2 sequence (P35968 with tags, fused parts or gaps DEL940-989/E990V limits assumed): as above

Ki [1]: 0.085 nM
SMILES: CCn1nc(C)cc1C(=O)Nc1ccc(C)c(-c2noc(-c3sc(Nc4ccc(CO)cc4)nc3N)n2)c1 [B(30)]
Vessel regression grade (VEGF): ++ (two pluses being judged to be approximately 25-75% regression)

melting point: 186 to 190 °C (dec.)
Ki ([2]; Table 2, spectrophotometric assay): 39 nM
% inhibition of FAK (FAKcd409): −5% and −6% and 4%
LCK % inhibition @ 5 (LCK tyrosine kinase [3]; Table 2, at 5 (head μM)): 34% @
FGF-R % inhibition @ 5 (FGF-R1; Table 2, at 5 (head μM)): 47% @
SMILES: COc1cc(Nc2nc(N)c(-c3nc(-c4ccccc4O)cs3)s2)cc(OC)c1OC [A(23), 2-[4′-Amino-2′-(3,4,5-trimethoxy-phenylamino)-[2,5′]bithiazolyl-4-yl]-phenol]

IC50 [4]: 2100 nM
inhibition at 1 µM (LCK tyrosine kinase [5]): 91%
Ki (LCK tyrosine kinase [3]; Table 3, first value of cells with two values): 9.3 nM
Ki [1]: 1 nM
inhibition at 1 µM (FGF-R1): 37%
SMILES: COc1cccc(C(=O)Nc2ccc(Cl)c(-c3noc(-c4sc(Nc5cc(OC)c(OC)c(OC)c5)nc4N)n3)c2)c1 [D(65), N-(3-{5-[4-Amino-2-(3,4,5-trimethoxy-phenylamino)-thiazol-5-yl]-[1,2,4]oxadiazyl}-4-chloro-phenyl)-3-methoxy-benzamide]
IC50 [6]: 4.3 nM

inhibition at 1 µM (LCK tyrosine kinase [5]): 92%
inhibition at 0.05 µM ([2]; Table 3, at 50 nM): 91%
inhibition at 1 µM (FGF-R1): 61%
SMILES: COc1cccc(C(=O)Nc2ccc(C)c(-c3noc(-c4sc(Nc5cc(OC)c(OC)c(OC)c5)nc4N)n3)c2)c1 [D(74), 3-[3-[(3-methoxybenzoyl)amino]-6-methyl-phenyl]-5-[2-[(3,4,5-trimethoxyphenyl)amino]-4-amino-5-thiazolyl]-1,2,4-oxadiazole]
Vessel regression grade [7]: ++ (two pluses being judged to be approximately 25-75% regression)
IC50 [6]: 5.2 nM
